In brackets after ≈: the same amount, converted by molar mass. Non-standard residues stand in square brackets, D forms with d. Residues, ends and D or L forms follow the SMILES beside them. ξ: configuration not given here. *: point of attachment. 1Naphthoyl = O=C(c1cccc2ccccc12)*; Lauroyl = CCCCCCCCCCCC(=O)*; Decanoyl = CCCCCCCCCC(=O)*; ξAhp(2) = CCCCCC(N)C(=O)O
How the values were obtained:
[1] = test system: P. aeruginosa PAO1; format: cell-based, Pseudomonas aeruginosa
Procedure: (§1) The MIC values of the nano‐short peptides were determined according to standard protocols.^[ [63] ^] Bacterial strains were revived from cryopreservation and cultured in Mueller–Hinton broth (MHB) to logarithmic growth phase, then diluted to a final density of 0.5–1 × 10⁶ CFU mL^−1. Serial dilutions of the nano‐short peptides were prepared in 0.2% bovine serum albumin (BSA) using a 96‐well plate format. Equal volumes of peptide solutions and bacterial suspensions were combined and incubated at 37 °C for 20–22 h. Bacterial growth was assessed by measuring absorbance at 492 nm, with MHB alone (negative control) and untreated bacterial suspension (positive control) included for reference.

[2] = test system: P. aeruginosa 27853; format: cell-based, Pseudomonas aeruginosa
Procedure: as §1

[3] = test system: MRSA 43300; format: cell-based, Methicillin-Resistant Staphylococcus aureus
Procedure: as §1

[4] = test system: E. coli 25922; format: cell-based, Escherichia coli
Procedure: as §1

[5] = test system: E. coli UB1005; format: cell-based, Escherichia coli
Procedure: as §1

[6] = test system: E. coli 078; format: cell-based, Escherichia coli
Procedure: as §1

[7] = test system: S. pullorum C7913; format: cell-based
Procedure: as §1

[8] = test system: E. faecalis 29212; format: cell-based, Enterococcus faecalis
Procedure: as §1

[9] = test system: S. epidermidis 12228; format: cell-based, Staphylococcus epidermidis
Procedure: as §1

[10] = test system: S. typhimurium 14028; format: cell-based, Salmonella typhimurium
Procedure: as §1

[11] = test system: S. typhimurium 7731; format: cell-based, Salmonella typhimurium
Procedure: as §1

[12] = test system: S. aureus 25923; format: cell-based, Staphylococcus aureus
Procedure: as §1

[13] = test system: S. aureus 29213; format: cell-based, Staphylococcus aureus
Procedure: as §1

| MIC, P. aeruginosa PAO1 [1] | MIC, P. aeruginosa 27853 [2] | MIC, MRSA 43300 [3] | MIC, E. coli 25922 [4] | MIC, E. coli UB1005 [5] | MIC, E. coli 078 [6] | MIC, S. pullorum C7913 [7] | MIC, E. faecalis 29212 [8] | MIC, S. epidermidis 12228 [9] | MIC, S. typhimurium 14028 [10] | MIC, S. typhimurium 7731 [11] | MIC, S. aureus 25923 [12] | MIC, S. aureus 29213 [13] | Compound |
| --- | --- | --- | --- | --- | --- | --- | --- | --- | --- | --- | --- | --- | --- |
| 256 µM (≈ 240 µg/mL) | 256 µM (≈ 240 µg/mL) | 256 µM (≈ 240 µg/mL) | 256 µM (≈ 240 µg/mL) | 256 µM (≈ 240 µg/mL) | 256 µM (≈ 240 µg/mL) | 256 µM (≈ 240 µg/mL) | 256 µM (≈ 240 µg/mL) | 256 µM (≈ 240 µg/mL) | 256 µM (≈ 240 µg/mL) | 256 µM (≈ 240 µg/mL) | 256 µM (≈ 240 µg/mL) | 256 µM (≈ 240 µg/mL) | C[C@H](N)C(=O)N[C@@H](C)C(=O)N[C@@H](C)C(=O)N[C@@H](C)C(=O)N[C@@H](C)C(=O)N[C@H](CCCNC(=N)N)C(=O)N[C@@H](CCCNC(=N)N)C(=O)N[C@@H](CCCNC(=N)N)C(=O)N1CCC[C@H]1C(=O)O [Peptide A5] (H-AAAAA[dR]RRP-OH) |
| 256 µM (≈ 222 µg/mL) | 256 µM (≈ 222 µg/mL) | 256 µM (≈ 222 µg/mL) | 256 µM (≈ 222 µg/mL) | 256 µM (≈ 222 µg/mL) | 256 µM (≈ 222 µg/mL) | 256 µM (≈ 222 µg/mL) | 256 µM (≈ 222 µg/mL) | 256 µM (≈ 222 µg/mL) | 256 µM (≈ 222 µg/mL) | 256 µM (≈ 222 µg/mL) | 256 µM (≈ 222 µg/mL) | 256 µM (≈ 222 µg/mL) | C[C@H](N)C(=O)N[C@@H](C)C(=O)N[C@@H](C)C(=O)N[C@@H](C)C(=O)N[C@H](CCCNC(=N)N)C(=O)N[C@@H](CCCNC(=N)N)C(=O)N[C@@H](CCCNC(=N)N)C(=O)N1CCC[C@H]1C(=O)O [Peptide A4] (H-AAAA[dR]RRP-OH) |
| 256 µM (≈ 247 µg/mL) | 256 µM (≈ 247 µg/mL) | 256 µM (≈ 247 µg/mL) | 256 µM (≈ 247 µg/mL) | 256 µM (≈ 247 µg/mL) | 256 µM (≈ 247 µg/mL) | 256 µM (≈ 247 µg/mL) | 256 µM (≈ 247 µg/mL) | 256 µM (≈ 247 µg/mL) | 256 µM (≈ 247 µg/mL) | 256 µM (≈ 247 µg/mL) | 256 µM (≈ 247 µg/mL) | 256 µM (≈ 247 µg/mL) | CCCCCC(N)C(=O)NC(CCCCC)C(=O)NC(CCCCC)C(=O)N[C@H](CCCNC(=N)N)C(=O)N[C@@H](CCCNC(=N)N)C(=O)N[C@@H](CCCNC(=N)N)C(=O)N1CCC[C@H]1C(=O)O (stereo partly shown) [Peptide B3] (H-[ξAhp(2)][ξAhp(2)][ξAhp(2)][dR]RRP-OH; N-terminus assumed) |
| 256 µM (≈ 189 µg/mL) | 256 µM (≈ 189 µg/mL) | 128 µM (≈ 94.5 µg/mL) | 256 µM (≈ 189 µg/mL) | 256 µM (≈ 189 µg/mL) | 256 µM (≈ 189 µg/mL) | 256 µM (≈ 189 µg/mL) | 256 µM (≈ 189 µg/mL) | 128 µM (≈ 94.5 µg/mL) | 256 µM (≈ 189 µg/mL) | 256 µM (≈ 189 µg/mL) | 256 µM (≈ 189 µg/mL) | 256 µM (≈ 189 µg/mL) | CCCCCCCCCC(=O)N[C@H](CCCNC(=N)N)C(=O)N[C@@H](CCCNC(=N)N)C(=O)N[C@@H](CCCNC(=N)N)C(=O)N1CCC[C@H]1C(=O)O [Peptide C10] (Decanoyl-[dR]RRP-OH) |
| 64 µM (≈ 49 µg/mL) | 128 µM (≈ 98 µg/mL) | 32 µM (≈ 24.5 µg/mL) | 128 µM (≈ 98 µg/mL) | 256 µM (≈ 196 µg/mL) | 128 µM (≈ 98 µg/mL) | 128 µM (≈ 98 µg/mL) | 64 µM (≈ 49 µg/mL) | 64 µM (≈ 49 µg/mL) | 128 µM (≈ 98 µg/mL) | 128 µM (≈ 98 µg/mL) | 64 µM (≈ 49 µg/mL) | 64 µM (≈ 49 µg/mL) | CCCCCCCCCCCC(=O)N[C@H](CCCNC(=N)N)C(=O)N[C@@H](CCCNC(=N)N)C(=O)N[C@@H](CCCNC(=N)N)C(=O)N1CCC[C@H]1C(=O)O [Peptide C12] (Lauroyl-[dR]RRP-OH) |
| 256 µM (≈ 259 µg/mL) | 256 µM (≈ 259 µg/mL) | 256 µM (≈ 259 µg/mL) | 256 µM (≈ 259 µg/mL) | 256 µM (≈ 259 µg/mL) | 256 µM (≈ 259 µg/mL) | 256 µM (≈ 259 µg/mL) | 256 µM (≈ 259 µg/mL) | 256 µM (≈ 259 µg/mL) | 256 µM (≈ 259 µg/mL) | 256 µM (≈ 259 µg/mL) | 256 µM (≈ 259 µg/mL) | 256 µM (≈ 259 µg/mL) | C[C@H](N)C(=O)N[C@@H](C)C(=O)N[C@@H](C)C(=O)N[C@@H](C)C(=O)N[C@@H](C)C(=O)N[C@@H](C)C(=O)N[C@H](CCCNC(=N)N)C(=O)N[C@@H](CCCNC(=N)N)C(=O)N[C@@H](CCCNC(=N)N)C(=O)N1CCC[C@H]1C(=O)O [Peptide A6] (H-AAAAAA[dR]RRP-OH) |
| 256 µM (≈ 189 µg/mL) | 256 µM (≈ 189 µg/mL) | 256 µM (≈ 189 µg/mL) | 256 µM (≈ 189 µg/mL) | 256 µM (≈ 189 µg/mL) | 256 µM (≈ 189 µg/mL) | 256 µM (≈ 189 µg/mL) | 256 µM (≈ 189 µg/mL) | 256 µM (≈ 189 µg/mL) | 256 µM (≈ 189 µg/mL) | 256 µM (≈ 189 µg/mL) | 256 µM (≈ 189 µg/mL) | 256 µM (≈ 189 µg/mL) | N=C(N)NCCC[C@H](NC(=O)c1cccc2ccccc12)C(=O)N[C@H](CCCNC(=N)N)C(=O)N[C@@H](CCCNC(=N)N)C(=O)N1CCC[C@H]1C(=O)O [Nap] (1Naphthoyl-R[dR]RP-OH) |

— PMC12677699, “Utilizing Proteolytic‐Resistant Nano‐Short Peptide Based on Naphthyl Tail‐Anchored to Combat Bacterial Infections” (Advanced Science, 2025)
